Assay results from BindingDB's records for doi:10.1111/cbdd.12744 (Southern Research Institute, 2016).

Target: T1, Kinesin-like protein KIF11 [15-368] (Homo sapiens, UniProt P52732)
T1 construct: 15-368
T1 sequence (P52732 whole entry): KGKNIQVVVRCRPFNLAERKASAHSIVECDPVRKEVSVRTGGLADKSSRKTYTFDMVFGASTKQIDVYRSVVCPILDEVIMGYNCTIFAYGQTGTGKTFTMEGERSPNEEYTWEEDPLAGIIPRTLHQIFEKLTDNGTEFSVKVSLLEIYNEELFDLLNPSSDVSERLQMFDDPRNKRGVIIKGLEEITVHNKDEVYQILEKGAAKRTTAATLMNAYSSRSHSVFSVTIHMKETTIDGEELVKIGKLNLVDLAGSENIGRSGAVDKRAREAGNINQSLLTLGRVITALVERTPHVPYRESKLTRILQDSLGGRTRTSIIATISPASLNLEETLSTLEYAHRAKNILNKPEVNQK
Experiment: ADP Hunter Plus Assay
Settings: pH 7; 25 °C
Experimental: Compounds were first tested in triplicates at 100 uM; hit compounds were further tested with a 10-point twofold serial dilution to confirm their activity and determine their IC50 values. S-Trityl-L-cysteine (STLC), a selective Eg5 inhibitor(J. Biol. Chem. 2006, 281:17559-17569; Mol. Cancer Ther. 2004, 3:1079-1090), was used as the control compound. Specifically, 20 uL of 15 mM PIPES (pH 7.0) containing 1 mM MgCl2, 50 nM MT, 20 uM paclitaxel, 200 uM ATP, 5% DMSO, 60 nM Eg5 proteins, and 1:2 serial dilutions of each individual compound starting from 1000 uM were added to each well of a 96-well plate. The plate was incubated at room temperature for 0.5 h, and then, the ADP Hunter Plus reagents were added. The plate was further incubated for 0.5 h and then read for fluorescence (ex.530/em.590) on Synergy 4 (BioTek, Winooski, VT, USA).

| SMILES | IC50 |
| --- | --- |
| FC(F)(F)c1ccc(Nc2ncnc3[nH]ncc23)cc1 [SRI35565] | 78.9 µM |
| Cc1ccc(C2C(C#N)=C(N)Nc3ncnn32)cc1 (stereo not drawn) [SRI35564] | 118 µM |
| O=C1CC(c2ccccc2)c2c(n3ncnc3[nH]c2=O)N1 (stereo not drawn) [SRI35566] | 65 µM |
